ChEMBL document CHEMBL5260848, “Recent advancements in the development of bioactive pyrazoline derivatives” (Eur J Med Chem, 2020)
≈ marks a conversion by molar mass, not a printed value.

Assays:
Homo sapiens = species on record: Homo sapiens; assay: Selectivity index, ratio of Ki for human MAO-A to Ki for human MAO-B
[1] = biological target: T1, Amine oxidase [flavin-containing] A (Homo sapiens, UniProt P21397)
T1 sequence (P21397 whole entry): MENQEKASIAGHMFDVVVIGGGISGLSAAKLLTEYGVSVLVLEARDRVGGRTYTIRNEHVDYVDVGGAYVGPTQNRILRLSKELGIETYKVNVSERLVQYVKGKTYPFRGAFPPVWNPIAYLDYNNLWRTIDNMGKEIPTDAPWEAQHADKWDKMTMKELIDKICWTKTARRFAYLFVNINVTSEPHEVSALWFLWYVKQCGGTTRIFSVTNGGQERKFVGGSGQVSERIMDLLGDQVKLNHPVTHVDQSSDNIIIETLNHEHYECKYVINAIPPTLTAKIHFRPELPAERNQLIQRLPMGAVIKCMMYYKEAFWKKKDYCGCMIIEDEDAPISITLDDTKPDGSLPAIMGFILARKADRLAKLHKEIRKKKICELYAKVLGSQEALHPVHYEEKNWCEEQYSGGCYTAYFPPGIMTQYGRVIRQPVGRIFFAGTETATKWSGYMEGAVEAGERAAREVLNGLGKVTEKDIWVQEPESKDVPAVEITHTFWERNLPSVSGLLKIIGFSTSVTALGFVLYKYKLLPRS

[2] = biological target: T2, Amine oxidase [flavin-containing] B (Homo sapiens, UniProt P27338)
T2 sequence (P27338 whole entry): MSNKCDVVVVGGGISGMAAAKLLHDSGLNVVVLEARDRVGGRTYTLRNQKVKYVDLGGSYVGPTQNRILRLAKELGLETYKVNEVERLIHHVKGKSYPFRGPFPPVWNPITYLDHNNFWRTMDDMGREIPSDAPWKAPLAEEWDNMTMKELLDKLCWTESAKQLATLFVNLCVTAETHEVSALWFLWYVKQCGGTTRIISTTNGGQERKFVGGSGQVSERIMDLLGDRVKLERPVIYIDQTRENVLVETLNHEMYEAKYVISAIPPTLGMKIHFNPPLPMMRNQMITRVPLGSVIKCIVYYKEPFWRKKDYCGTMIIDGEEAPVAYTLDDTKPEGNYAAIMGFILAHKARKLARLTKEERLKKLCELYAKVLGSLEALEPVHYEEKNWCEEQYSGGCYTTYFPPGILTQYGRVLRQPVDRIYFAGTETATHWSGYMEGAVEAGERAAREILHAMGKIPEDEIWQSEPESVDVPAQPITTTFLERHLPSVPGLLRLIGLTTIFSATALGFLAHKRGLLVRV

Mus musculus [3] = species on record: Mus musculus; assay: Antidepressant activity in Swiss albino mouse assessed as decrease in immobility time by forced swimming test; assay type: functional
Mus musculus [4] = species on record: Mus musculus; assay: Antidepressant activity in Swiss albino mouse assessed as decrease in immobility time by tail suspension test; assay type: functional
Mus musculus [5] = species on record: Mus musculus; assay: Antidepressant activity in mouse assessed as […] by tail suspension test; assay type: functional
Mus musculus [6] = species on record: Mus musculus; assay: Antidepressant activity in mouse assessed as […] by forced swimming test; assay type: functional
Bacillus subtilis = assay: microbe, parasite or virus in culture; conditions: 24 h
Candida albicans = assay: microbe, parasite or virus in culture; conditions: 24 h
Pseudomonas aeruginosa = assay: microbe, parasite or virus in culture; conditions: 24 h
Aspergillus niger = assay: Antifungal activity against Aspergillus niger incubated for 24 hrs by disc diffusion method; assay type: functional
Staphylococcus aureus = assay: microbe, parasite or virus in culture; conditions: 24 h
[7] = test system: Mycobacterium tuberculosis; assay: microbe, parasite or virus in culture; conditions: 120 h
Escherichia coli = assay: Antibacterial activity against Escherichia coli incubated for 24 hrs by disc diffusion method; assay type: functional
Aspergillus fumigatus = assay: Antifungal activity against Aspergillus fumigatus incubated for 24 hrs by disc diffusion method; assay type: functional
Aspergillus flavus = assay: Antifungal activity against Aspergillus flavus incubated for 24 hrs by disc diffusion method; assay type: functional

SMILES: C=CCNC(=S)N1N=C(c2ccccc2)CC1c1ccc(F)cc1 (stereo unspecified)
- Ratio Ki (Homo sapiens): 0.000464
- Ki [1]: 0.1 nM
- Ki [2]: 200 nM

SMILES: Cc1nc(-c2cccc(Cl)c2Cl)ccc1C1=NNC(c2cc(F)cc(F)c2)C1 (stereo unspecified)
- Time (Mus musculus [3]): 66.67 s
- Time (Mus musculus [4]): 70.33 s

SMILES: COc1ccc(C2CC(c3cccc4ccccc34)=NN2)cc1OC (stereo unspecified)
- Time (Mus musculus [5]): 36.83 s
- Time (Mus musculus [6]): 21.17 s

SMILES: Clc1ccc(C2CC(c3cccc4ccccc34)=NN2)cc1 (stereo unspecified)
- Time (Mus musculus [5]): 29.67 s
- Time (Mus musculus [6]): 43.33 s

SMILES: COc1ccc(C2CC(c3ccccc3)=NN2C(=O)NNS(=O)(=O)c2ccc(F)cc2)cc1 (stereo unspecified)
- MIC (Bacillus subtilis): 25 µg/mL (≈ 53.4 µM)
- MIC (Candida albicans): 25 µg/mL (≈ 53.4 µM)
- MIC (Pseudomonas aeruginosa): 25 µg/mL (≈ 53.4 µM)
- MIC (Aspergillus niger): 25 µg/mL (≈ 53.4 µM)
- MIC (Staphylococcus aureus): 25 µg/mL (≈ 53.4 µM)
- MIC [7]: 0.8 µg/mL (≈ 1.71 µM)
- MIC (Escherichia coli): 25 µg/mL (≈ 53.4 µM)
- MIC (Aspergillus fumigatus): 25 µg/mL (≈ 53.4 µM)
- MIC (Aspergillus flavus): 25 µg/mL (≈ 53.4 µM)

SMILES: CNC(=S)N1N=C(c2ccccc2)CC1c1ccc(F)cc1 (stereo unspecified)
- Ratio Ki (Homo sapiens): 0.000464
- Ki [1]: 0.1 nM
- Ki [2]: 200 nM

SMILES: Clc1ccc(C2=NNC(c3cccs3)C2)cc1 (stereo unspecified)
- Time (Mus musculus [5]): 21.17 s
- Time (Mus musculus [6]): 21.17 s

SMILES: COc1ccc(C2CC(c3ccccn3)=NN2)cc1OC (stereo unspecified)
- Time (Mus musculus [5]): 21.17 s
- Time (Mus musculus [6]): 21.17 s

SMILES: c1ccc(C2=NNC(c3cccs3)C2)nc1 (stereo unspecified)
- Time (Mus musculus [5]): 21.17 s
- Time (Mus musculus [6]): 21.17 s

SMILES: Clc1ccc(C2=NNC(c3ccc(Cl)cc3)C2)cc1 (stereo unspecified)
- Time (Mus musculus [5]): 21.17 s
- Time (Mus musculus [6]): 21.17 s

SMILES: CNC(=S)N1N=C(c2ccc(C)cc2)CC1c1ccc(F)cc1 (stereo unspecified)
- Ratio Ki (Homo sapiens): 0.000464
- Ki [1]: 0.1 nM
- Ki [2]: 200 nM

SMILES: O=C(NNS(=O)(=O)c1ccc(F)cc1)N1N=C(c2ccccc2)CC1c1ccc(Cl)cc1 (stereo unspecified)
- MIC (Bacillus subtilis): 25 µg/mL (≈ 52.9 µM)
- MIC (Candida albicans): 25 µg/mL (≈ 52.9 µM)
- MIC (Pseudomonas aeruginosa): 25 µg/mL (≈ 52.9 µM)
- MIC (Aspergillus niger): 25 µg/mL (≈ 52.9 µM)
- MIC (Staphylococcus aureus): 25 µg/mL (≈ 52.9 µM)
- MIC [7]: 0.8 µg/mL (≈ 1.69 µM)
- MIC (Escherichia coli): 25 µg/mL (≈ 52.9 µM)
- MIC (Aspergillus fumigatus): 25 µg/mL (≈ 52.9 µM)
- MIC (Aspergillus flavus): 25 µg/mL (≈ 52.9 µM)

SMILES: Clc1ccc(C2CC(c3ccccn3)=NN2)cc1 (stereo unspecified)
- Time (Mus musculus [5]): 21.17 s
- Time (Mus musculus [6]): 21.17 s

SMILES: Cc1ccc(C2CC(c3ccccc3)=NN2C(=O)NNS(=O)(=O)c2ccc(F)cc2F)cc1 (stereo unspecified)
- MIC (Bacillus subtilis): 25 µg/mL (≈ 53.1 µM)
- MIC (Candida albicans): 25 µg/mL (≈ 53.1 µM)
- MIC (Pseudomonas aeruginosa): 25 µg/mL (≈ 53.1 µM)
- MIC (Aspergillus niger): 25 µg/mL (≈ 53.1 µM)
- MIC (Staphylococcus aureus): 25 µg/mL (≈ 53.1 µM)
- MIC [7]: 0.8 µg/mL (≈ 1.7 µM)
- MIC (Escherichia coli): 25 µg/mL (≈ 53.1 µM)
- MIC (Aspergillus fumigatus): 25 µg/mL (≈ 53.1 µM)
- MIC (Aspergillus flavus): 25 µg/mL (≈ 53.1 µM)

SMILES: Clc1ccc(C2=NNC(c3ccco3)C2)cc1 (stereo unspecified)
- Time (Mus musculus [5]): 21.17 s
- Time (Mus musculus [6]): 21.17 s

SMILES: CSc1ccc(C2CC(c3ccccc3)=NN2C(=O)NNS(=O)(=O)c2ccccc2)cc1 (stereo unspecified)
- MIC (Bacillus subtilis): 25 µg/mL (≈ 53.6 µM)
- MIC (Candida albicans): 25 µg/mL (≈ 53.6 µM)
- MIC (Pseudomonas aeruginosa): 25 µg/mL (≈ 53.6 µM)
- MIC (Aspergillus niger): 25 µg/mL (≈ 53.6 µM)
- MIC (Staphylococcus aureus): 25 µg/mL (≈ 53.6 µM)
- MIC [7]: 0.8 µg/mL (≈ 1.71 µM)
- MIC (Escherichia coli): 25 µg/mL (≈ 53.6 µM)
- MIC (Aspergillus fumigatus): 25 µg/mL (≈ 53.6 µM)
- MIC (Aspergillus flavus): 25 µg/mL (≈ 53.6 µM)

SMILES: O=C(NNS(=O)(=O)c1ccccc1)N1N=C(c2ccccc2)CC1c1ccc(Br)cc1 (stereo unspecified)
- MIC (Bacillus subtilis): 25 µg/mL (≈ 50.1 µM)
- MIC (Candida albicans): 25 µg/mL (≈ 50.1 µM)
- MIC (Pseudomonas aeruginosa): 25 µg/mL (≈ 50.1 µM)
- MIC (Aspergillus niger): 25 µg/mL (≈ 50.1 µM)
- MIC (Staphylococcus aureus): 25 µg/mL (≈ 50.1 µM)
- MIC [7]: 0.8 µg/mL (≈ 1.6 µM)
- MIC (Escherichia coli): 25 µg/mL (≈ 50.1 µM)
- MIC (Aspergillus fumigatus): 25 µg/mL (≈ 50.1 µM)
- MIC (Aspergillus flavus): 25 µg/mL (≈ 50.1 µM)

SMILES: CCNC(=S)N1N=C(c2ccc(Cl)cc2)CC1c1ccc(F)cc1 (stereo unspecified)
- Ratio Ki (Homo sapiens): 0.000464
- Ki [1]: 0.1 nM
- Ki [2]: 200 nM

SMILES: Oc1ccc(C2=NNC(c3ccco3)C2)cc1 (stereo unspecified)
- Time (Mus musculus [5]): 21.17 s
- Time (Mus musculus [6]): 21.17 s

SMILES: O=C(NNS(=O)(=O)c1ccc(F)cc1F)N1N=C(c2ccccc2)CC1c1ccc(Br)cc1 (stereo unspecified)
- MIC (Bacillus subtilis): 25 µg/mL (≈ 46.7 µM)
- MIC (Candida albicans): 25 µg/mL (≈ 46.7 µM)
- MIC (Pseudomonas aeruginosa): 25 µg/mL (≈ 46.7 µM)
- MIC (Aspergillus niger): 25 µg/mL (≈ 46.7 µM)
- MIC (Staphylococcus aureus): 25 µg/mL (≈ 46.7 µM)
- MIC [7]: 0.8 µg/mL (≈ 1.49 µM)
- MIC (Escherichia coli): 25 µg/mL (≈ 46.7 µM)
- MIC (Aspergillus fumigatus): 25 µg/mL (≈ 46.7 µM)
- MIC (Aspergillus flavus): 25 µg/mL (≈ 46.7 µM)

SMILES: c1csc(C2CC(c3cccc4ccccc34)=NN2)c1 (stereo unspecified)
- Time (Mus musculus [5]): 21.17 s
- Time (Mus musculus [6]): 21.17 s

SMILES: C=CCNC(=S)N1N=C(c2ccc(C)cc2)CC1c1ccc(F)cc1 (stereo unspecified)
- Ratio Ki (Homo sapiens): 0.000464
- Ki [1]: 0.1 nM
- Ki [2]: 200 nM
